Test results taken from patent US20020193320A1, “C-2 modified erythromycin derivatives” (priority 1999, published 2002).

Columns and labels:
Test in all cases: In vitro antibacterial activity, agar dilution MIC
Type in all cases: cell-based
[1] = test system: Streptococcus Pneumonia 5649; settings: code ZZA (code list: ZA), 35-37° C., 20 to 24 hours
Description: (§1) Representative compounds of the present invention were assayed in vitro for antibacterial activity as follows: Twelve petri dishes containing successive aqueous dilutions of the test compound mixed with 10 mL of sterilized Brain Heart Infusion (BHI) agar (Difco 0418-01-5) were prepared. Each plate was inoculated with 1:100 (or 1:10 for slow-growing strains, such as Micrococcus and Streptococcus) dilutions of up to 32 different microorganisms, using a Steers replicator block. The inoculated plates were incubated at 35-37° C. for 20 to 24 hours. In addition, a control plate, using BHI agar containing no test compound, was prepared and incubated at the beginning and end of each test.
(§2) An additional plate containing a compound having known susceptibility patterns for the organisms being tested and belonging to the same antibiotic class as the test compound was also prepared and incubated as a further control, as well as to provide test-to-test comparability.
(§3) After incubation, each plate was visually inspected. The minimum inhibitory concentration (MIC) was defined as the lowest concentration of drug yielding no growth, a slight haze, or sparsely isolated colonies on the inoculum spot as compared to the growth control.

[2] = test system: Streptococcus Pneumonia GYR 1171; settings: code YY, 35-37° C., 20 to 24 hours
Description: as §1, §2, §3

[3] = test system: Streptococcus pyogenes EES61; settings: code LL, BHI agar, 35-37° C., 20 to 24 hours
Description: as §1, §2, §3

[4] = test system: Haemophilis Influenzae DILL AMP R; settings: code WW, 35-37° C., 20 to 24 hours
Description: as §1, §2, §3

[5] = test system: Streptococcus Pneumonia 5979; settings: code ZZ, 35-37° C., 20 to 24 hours
Description: as §1, §2, §3

[6] = test system: Streptococcus Pneumonia ATCC 6303; settings: code XX, 35-37° C., 20 to 24 hours
Description: as §1, §2, §3

[7] = test system: Micrococcus luteus ATCC 4698; settings: code PP, BHI agar, 35-37° C., 20 to 24 hours
Description: as §1, §2, §3

Escherichia coli SS = test system: Escherichia coli SS; parameters: unit not given here; settings: code RR, BHI agar, 35-37° C., 20 to 24 hours
Description: as §1, §2, §3

[8] = test system: Streptococcus agalactiae CMX 508; parameters: unit not given here; settings: code KK, BHI agar, 35-37° C., 20 to 24 hours
Description: as §1, §2, §3

Candida albicans CCH 442 = test system: Candida albicans CCH 442; parameters: unit not given here; settings: code TT, BHI agar, 35-37° C., 20 to 24 hours
Description: as §1, §2, §3

[9] = test system: Micrococcus luteus ATCC 9341; parameters: unit not given here; settings: code OO, BHI agar, 35-37° C., 20 to 24 hours
Description: as §1, §2, §3

[10] = test system: Staphylococcus aureus 1775; parameters: unit not given here; settings: code GG, BHI agar, 35-37° C., 20 to 24 hours
Description: as §1, §2, §3

[11] = test system: Mycobacterium smegmatis ATCC 114; parameters: unit not given here; settings: code UU, BHI agar, 35-37° C., 20 to 24 hours
Description: as §1, §2, §3

[12] = test system: Staphylococcus aureus NCTC 10649M; parameters: unit not given here; settings: code EE, BHI agar, 35-37° C., 20 to 24 hours
Description: as §1, §2, §3

[13] = test system: Streptococcus pyogenes 930; parameters: unit not given here; settings: code MM, BHI agar, 35-37° C., 20 to 24 hours
Description: as §1, §2, §3

[14] = test system: Staphylococcus aureus CMX 642A; parameters: unit not given here; settings: code DD, BHI agar, 35-37° C., 20 to 24 hours
Description: as §1, §2, §3

Escherichia coli DC-2 = test system: Escherichia coli DC-2; parameters: unit not given here; settings: code SS, BHI agar, 35-37° C., 20 to 24 hours
Description: as §1, §2, §3

[15] = test system: Streptococcus pyogenes PIU 2548; parameters: unit not given here; settings: code NN, BHI agar, 35-37° C., 20 to 24 hours
Description: as §1, §2, §3

[16] = test system: Staphylococcus aureus A-5278; parameters: unit not given here; settings: code CC, BHI agar, 35-37° C., 20 to 24 hours
Description: as §1, §2, §3

[17] = test system: Nocardia Asteroides ATCC 99700; parameters: unit not given here; settings: code VV, BHI agar, 35-37° C., 20 to 24 hours
Description: as §1, §2, §3

[18] = test system: Staphylococcus aureus CMX 553; parameters: unit not given here; settings: code FF, BHI agar, 35-37° C., 20 to 24 hours
Description: as §1, §2, §3

[19] = test system: Streptococcus bovis A-5169; parameters: unit not given here; settings: code JJ, BHI agar, 35-37° C., 20 to 24 hours
Description: as §1, §2, §3

[20] = test system: Staphylococcus aureus A-5177; parameters: unit not given here; settings: code BB, BHI agar, 35-37° C., 20 to 24 hours
Description: as §1, §2, §3

[21] = test system: Staphylococcus epidermidis 3519; parameters: unit not given here; settings: code HH, BHI agar, 35-37° C., 20 to 24 hours
Description: as §1, §2, §3

Escherichia coli JUHL = test system: Escherichia coli JUHL; parameters: unit not given here; settings: code QQ, BHI agar, 35-37° C., 20 to 24 hours
Description: as §1, §2, §3

[22] = test system: Enterococcus faecium ATCC X043; parameters: unit not given here; settings: code II, BHI agar, 35-37° C., 20 to 24 hours
Description: as §1, §2, §3

[23] = test system: Staphylococcus aureus ATCC 6538P; parameters: unit not given here; settings: code AA, BHI agar, 35-37° C., 20 to 24 hours
Description: as §1, §2, §3

Structure (SMILES): CCC1OC(=O)C(C)(O)C(=O)C(C)C(OC2OC(C)CC(N(C)C)C2O)C(C)(OCC(O)CO)CC(C)C(=O)C(C)C2NC(=O)OC12C (stereo not shown) [Example 3, Compound of formula (II): R^a is —CH2CH(OH)CH2OH, R^b is H, Y and Z together are O, T is —NH—, R is —OH]
- Antibacterial Activity (MIC) [1]: >128
- Antibacterial Activity (MIC) [2]: 32
- Antibacterial Activity (MIC) [3]: 100
- Antibacterial Activity (MIC) [4]: >128
- Antibacterial Activity (MIC) [5]: >128
- Antibacterial Activity (MIC) [6]: 64
- Antibacterial Activity (MIC) [7]: >100
- Antibacterial Activity (MIC) (Escherichia coli SS): 100
- Antibacterial Activity (MIC) [8]: 50
- Antibacterial Activity (MIC) (Candida albicans CCH 442): >100
- Antibacterial Activity (MIC) [9]: 50
- Antibacterial Activity (MIC) [10]: >100
- Antibacterial Activity (MIC) [11]: >100
- Antibacterial Activity (MIC) [12]: >100
- Antibacterial Activity (MIC) [13]: >100
- Antibacterial Activity (MIC) [14]: >100
- Antibacterial Activity (MIC) (Escherichia coli DC-2): >100
- Antibacterial Activity (MIC) [15]: >100
- Antibacterial Activity (MIC) [16]: >100
- Antibacterial Activity (MIC) [17]: >100
- Antibacterial Activity (MIC) [18]: >100
- Antibacterial Activity (MIC) [19]: 50
- Antibacterial Activity (MIC) [20]: >100
- Antibacterial Activity (MIC) [21]: >100
- Antibacterial Activity (MIC) (Escherichia coli JUHL): >100
- Antibacterial Activity (MIC) [22]: 100
- Antibacterial Activity (MIC) [23]: >100

Structure (SMILES): CCC1OC(=O)C(C)(O)C(=O)C(C)C(OC2OC(C)CC(N(C)C)C2O)C(C)(OCC=Cc2cnc3ccccc3c2)CC(C)C(=O)C(C)C2NC(=O)OC12C (stereo not shown) [Example 8, Compound of formula (II): R^a is —CH2CH═CH—(3-quinolinyl), R^b is H, Y and Z together are O, T is —NH—, R is —OH,]
- Antibacterial Activity (MIC) [1]: 0.5
- Antibacterial Activity (MIC) [2]: 0.03
- Antibacterial Activity (MIC) [3]: 0.02
- Antibacterial Activity (MIC) [4]: 16
- Antibacterial Activity (MIC) [5]: 128
- Antibacterial Activity (MIC) [6]: 0.03
- Antibacterial Activity (MIC) [7]: 0.2
- Antibacterial Activity (MIC) (Escherichia coli SS): 0.2
- Antibacterial Activity (MIC) [8]: 0.01
- Antibacterial Activity (MIC) (Candida albicans CCH 442): >100
- Antibacterial Activity (MIC) [9]: 0.02
- Antibacterial Activity (MIC) [10]: >100
- Antibacterial Activity (MIC) [11]: 3.1
- Antibacterial Activity (MIC) [12]: 0.78
- Antibacterial Activity (MIC) [13]: 50
- Antibacterial Activity (MIC) [14]: 0.39
- Antibacterial Activity (MIC) (Escherichia coli DC-2): >100
- Antibacterial Activity (MIC) [15]: 0.39
- Antibacterial Activity (MIC) [16]: >100
- Antibacterial Activity (MIC) [17]: 0.39
- Antibacterial Activity (MIC) [18]: 0.78
- Antibacterial Activity (MIC) [19]: 0.02
- Antibacterial Activity (MIC) [20]: 0.39
- Antibacterial Activity (MIC) [21]: 0.39
- Antibacterial Activity (MIC) (Escherichia coli JUHL): >100
- Antibacterial Activity (MIC) [22]: 0.2
- Antibacterial Activity (MIC) [23]: 0.39

Structure (SMILES): CCC1OC(=O)C(C)(O)C(=O)C(C)C(OC2OC(C)CC(N(C)C)C2O)C(C)(OC)CC(C)C(=O)C(C)C2N(CCCCc3ccccc3)C(=O)OC12C (stereo not shown) [Example 10, Compound of formula (II): R^a is CH3, R^b is H, Y and Z together are O, T is —N(W(R^g))-, W is —(CH2)p-, p is 4, R^g is phenyl R is —OH]
- Antibacterial Activity (MIC) [3]: 0.2
- Antibacterial Activity (MIC) ([4]; unit assumed): 16 µg/mL
- Antibacterial Activity (MIC) [7]: 0.39
- Antibacterial Activity (MIC) (Escherichia coli SS): 3.1
- Antibacterial Activity (MIC) [8]: 0.2
- Antibacterial Activity (MIC) (Candida albicans CCH 442): 25
- Antibacterial Activity (MIC) [9]: 0.39
- Antibacterial Activity (MIC) [10]: 25
- Antibacterial Activity (MIC) [11]: 1.56
- Antibacterial Activity (MIC) [12]: 1.56
- Antibacterial Activity (MIC) [13]: 6.2
- Antibacterial Activity (MIC) [14]: 1.56
- Antibacterial Activity (MIC) (Escherichia coli DC-2): >100
- Antibacterial Activity (MIC) [15]: 1.56
- Antibacterial Activity (MIC) [16]: 25
- Antibacterial Activity (MIC) [17]: 1.56
- Antibacterial Activity (MIC) [18]: 1.56
- Antibacterial Activity (MIC) [19]: 0.2
- Antibacterial Activity (MIC) [20]: 1.56
- Antibacterial Activity (MIC) [21]: 1.56
- Antibacterial Activity (MIC) (Escherichia coli JUHL): >100
- Antibacterial Activity (MIC) [22]: 0.39
- Antibacterial Activity (MIC) [23]: 1.56

Structure (SMILES): CC[C@H]1OC(=O)[C@H](C)[C@@H](O[C@H]2C[C@@](C)(OC)[C@@H](O)[C@H](C)O2)[C@H](C)[C@@H](O[C@@H]2O[C@H](C)C[C@H](N(C)C)[C@H]2O)[C@](C)(O)C[C@@H](C)C(=O)[C@H](C)[C@@H](O)[C@]1(C)O [Ery. A, Erythromycin A, reference compound]
- Antibacterial Activity (MIC) [1]: 16
- Antibacterial Activity (MIC) [2]: 0.06
- Antibacterial Activity (MIC) [3]: 0.05
- Antibacterial Activity (MIC) [4]: 4
- Antibacterial Activity (MIC) [6]: 0.06
- Antibacterial Activity (MIC) [7]: 0.2
- Antibacterial Activity (MIC) (Escherichia coli SS): 0.78
- Antibacterial Activity (MIC) [8]: 0.05
- Antibacterial Activity (MIC) (Candida albicans CCH 442): >100
- Antibacterial Activity (MIC) [9]: 0.05
- Antibacterial Activity (MIC) [10]: >100
- Antibacterial Activity (MIC) [11]: 3.1
- Antibacterial Activity (MIC) [12]: 0.39
- Antibacterial Activity (MIC) [13]: >100
- Antibacterial Activity (MIC) [14]: 0.39
- Antibacterial Activity (MIC) (Escherichia coli DC-2): >100
- Antibacterial Activity (MIC) [15]: 6.2
- Antibacterial Activity (MIC) [16]: >100
- Antibacterial Activity (MIC) [17]: 0.1
- Antibacterial Activity (MIC) [18]: 0.39
- Antibacterial Activity (MIC) [19]: 0.02
- Antibacterial Activity (MIC) [20]: 3.1
- Antibacterial Activity (MIC) [21]: 0.39
- Antibacterial Activity (MIC) (Escherichia coli JUHL): >100
- Antibacterial Activity (MIC) [22]: 0.05
- Antibacterial Activity (MIC) [23]: 0.2
